The subject of data set [1] is MT3. The data set is described as follows: Potentiation of doxorubicin-induced cytotoxicity in adriablastin-resistant human MT3 cells expressing p-glycoprotein xenografted in NMRI nude mouse at 5 mg/kg, ip administered on day 12, 13, 19, 20 prior to doxorubicin challenge of 6 mg/kg, iv on day 13 and 20. The data set is classed as functional, organism-based. Background: Xenograft models place foreign cells or tissue in a host animal.

Data set [2] relates to Mus musculus. Kind of data set: Toxicity in NMRI nude mouse xenografted with adriablastin-resistant human MT3 cells expressing p-glycoprotein assessed as body weight loss at 5 mg/kg, ip administered on day 12, 13, 19, 20 prior to doxorubicin challenge of 6 mg/kg, iv on day 13 and 20. The data set is classed as organism-based. The note with it: in vivo.
Data set [3] concerns Mus musculus. The data set is described as follows: Toxicity in nude mouse assessed as body weight change at 100.8 mg/kg, iv measured daily for 13 days. The note with it: in vivo, 312 h. Type of data set: organism-based. Also on record: dose 100.8 mg/kg, route intravenous.
The test system of data set [4] is MT3. The data set is described as follows: Antitumor activity against adriablastin-resistant human MT3 cells expressing p-glycoprotein xenografted in NMRI nude mouse at 6 mg/kg, iv administered on day 13 and 20. The data set is classed as functional, organism-based. Set-up: dose 6 mg/kg.

Molecules are shown by their SMILES. Activity calls are given as the source filed them. The rule behind the calls is not given here.

From ChEMBL document CHEMBL1143362, “Development of dual-acting prodrugs for circumventing multidrug resistance” (Bioorg Med Chem Lett, 2009) come the findings set out here.

On to `CCOC/C=C/c1ccc(-c2nc(-c3ccc(N(C)C)cc3)c(-c3ccc(NC(=O)CCN)cc3)[nH]2)cc1`, for which the result in data set [1] was Active. For the same compound, the Activity in data set [2] is listed as -23%.

As to `CCOC/C=C/c1ccc(-c2nc(-c3ccc(N(C)C)cc3)c(-c3ccc(NC(=O)CCNC(=O)OCc4ccc(NC(=O)[C@H](CCCCN)NC(=O)[C@H](Cc5ccccc5)NC(=O)CC[C@H](NC(=O)CCCCCN5C(=O)C=CC5=O)C(=O)N[C@@H](Cc5ccccc5)C(=O)N[C@@H](CCCCN)C(=O)Nc5ccc(COC(=O)N[C@H]6C[C@H](O[C@H]7C[C@@](O)(C(=O)CO)Cc8c(O)c9c(c(O)c87)C(=O)c7c(OC)cccc7C9=O)O[C@@H](C)[C@H]6O)cc5)cc4)cc3)[nH]2)cc1.O=C(O)C(F)(F)F.O=C(O)C(F)(F)F`, the Activity result in data set [3] was “Non-toxic”.

With `COc1cccc2c1C(=O)c1c(O)c3c(c(O)c1C2=O)C[C@@](O)(C(=O)CO)C[C@@H]3O[C@H]1C[C@H](N)[C@H](O)[C@H](C)O1`, the outcome in data set [4] was inactive.
